# Experimental data published in article PMC12146700 (Proceedings of the National Academy of Sciences of the …, 2025).
# Positions count from the first letter of the chain named.
# Assays:
# [1] = target: T1, human ATP8B1 (full-length, N-terminal GST-tagged) (Homo sapiens, UniProt O43520); experiment: ATPase activity stimulated by phospholipid; format: biochemical; settings: activation of ATPase activity; acyl chains not told
# T1 sequence (O43520 1-1251): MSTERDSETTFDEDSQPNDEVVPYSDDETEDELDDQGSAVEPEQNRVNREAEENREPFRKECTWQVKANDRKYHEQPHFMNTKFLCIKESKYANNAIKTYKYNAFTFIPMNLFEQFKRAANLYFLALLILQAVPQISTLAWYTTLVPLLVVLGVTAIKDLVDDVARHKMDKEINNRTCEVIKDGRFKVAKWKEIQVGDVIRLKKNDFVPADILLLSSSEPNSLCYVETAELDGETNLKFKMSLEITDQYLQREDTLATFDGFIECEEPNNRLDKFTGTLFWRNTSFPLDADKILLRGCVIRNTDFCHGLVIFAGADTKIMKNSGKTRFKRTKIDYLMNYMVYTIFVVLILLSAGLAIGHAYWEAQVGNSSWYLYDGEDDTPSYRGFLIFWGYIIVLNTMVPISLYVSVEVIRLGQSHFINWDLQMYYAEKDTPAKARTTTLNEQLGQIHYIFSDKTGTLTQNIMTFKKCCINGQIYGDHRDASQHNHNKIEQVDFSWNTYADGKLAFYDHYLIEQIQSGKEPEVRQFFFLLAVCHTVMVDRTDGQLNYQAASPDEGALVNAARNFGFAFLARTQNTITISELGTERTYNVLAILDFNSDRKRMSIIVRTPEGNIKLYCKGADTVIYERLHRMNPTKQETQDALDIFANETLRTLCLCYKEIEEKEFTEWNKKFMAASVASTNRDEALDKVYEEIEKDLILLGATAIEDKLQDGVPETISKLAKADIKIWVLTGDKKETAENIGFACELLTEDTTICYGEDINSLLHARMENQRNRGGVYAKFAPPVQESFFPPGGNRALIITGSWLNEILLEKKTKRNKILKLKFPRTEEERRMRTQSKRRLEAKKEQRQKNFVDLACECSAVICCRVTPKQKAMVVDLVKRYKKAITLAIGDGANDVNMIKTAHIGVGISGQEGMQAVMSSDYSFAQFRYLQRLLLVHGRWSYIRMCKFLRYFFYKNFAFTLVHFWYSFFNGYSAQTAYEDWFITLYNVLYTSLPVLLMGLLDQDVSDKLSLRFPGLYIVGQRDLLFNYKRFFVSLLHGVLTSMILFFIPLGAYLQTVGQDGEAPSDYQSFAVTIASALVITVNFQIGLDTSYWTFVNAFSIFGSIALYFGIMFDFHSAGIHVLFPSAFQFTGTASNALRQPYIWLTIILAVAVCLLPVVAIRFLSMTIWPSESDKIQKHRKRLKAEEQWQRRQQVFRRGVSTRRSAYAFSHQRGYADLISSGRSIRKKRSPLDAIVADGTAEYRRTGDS
# [2] = target: T2, WT ATP8B1 fragment (residues 803 to 880) (Homo sapiens, UniProt O43520); experiment: surface plasmon resonance, protein covalently coupled on CM5 chip; format: binding; settings: PIP2 injected at different concentrations; acyl chains not told
# T2 sequence (O43520 803-880): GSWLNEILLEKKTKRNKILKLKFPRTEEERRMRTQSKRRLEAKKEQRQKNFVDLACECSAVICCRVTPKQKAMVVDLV
# [3] = target: T3, WT ATP8B1 fragment (residues 803 to 880) (Homo sapiens, UniProt O43520, K824A/R832A/R833A/R835A); experiment: as above; format: binding; settings: PIP2 injected at different concentrations; acyl chains not told
# T3 sequence (O43520 803-880 K824A/R832A/R833A/R835A): T2 sequence (O43520 803-880) with K22A, R30A, R31A, R33A
substance,measurement,setting,value
PIP2,EC50,[1],232 ± 35.2 µM
same,Kd,[2],~11.5 µM
same,Kd,[3],~63.6 µM
